{"source": "patent US20110039763A1", "about": "“TARGETED ANTIMICROBIAL MOIETIES” (C3 JIAN, INC., priority 2009, published 2011)", "note": "“Also recorded” adds a separate entry of the source."}
{"system": "microorganisms", "assay": "Targeting peptide binding to target microorganisms (Tables 3, 10, 12)", "details": "microorganism(s) the targeting peptide binds; binding in aqueous buffers that varied with peptide solubility, preferably 1x PBS", "source_text": "(§1) In certain embodiments, the targeting moiety comprises one or more targeting peptides that bind particular bacteria, fungi, and/or yeasts, and/or algae, and/or viruses and/or that bind particular groups of bacteria, and/or groups of fungi, and/or groups of yeasts, and/or groups of algae.\n(§2) In certain embodiments the targeting peptides include peptides comprising or consisting of one or more of the amino acid sequences shown in Table 3 (SEQ ID NOs:13-1566). In various embodiments the peptides include peptides comprising or consisting of the retro, inverso, retro-inverso, and/or beta form of one or more of the amino acid sequences shown in Table 3. Also contemplated are circular permutations of these sequences as well as peptides comprising or consisting of the retro, inverso, retro-inverso, and/or beta form of such circular permutations.\n(§3) In certain embodiments the targeting peptide can comprise one or more domains capable of binding, specifically binding, or preferentially binding to a microorganism, e.g., a target microbial organism (see, e.g., Table 3). In certain embodiment, the targeting peptide be identified via screening peptide libraries. For example, a phage display peptide library can be screened against a target microbial organism or a desired antigen or epitope thereof. Any peptide identified through such screening can be used as a targeting peptide for the target microbial organism."}
{"substance": "1T-294 (YDKIADGVFKIGKRGVL; Peptide with targeting and/or antimicrobial activity)", "Target(s)": "T. denticola"}
{"substance": "1T-192 (ILVLLALQVELDSKFQY; Peptide with targeting and/or antimicrobial activity)", "Target(s)": "S. sanguinis"}
{"substance": "TT-310 (TKLKKNNKLLSAKKENTLHTKDK; Peptide with targeting and/or antimicrobial activity)", "Target(s)": "F. nucleatum"}
{"substance": "1T-268 (PITPKKEKCGLGTYAPKNPVFSKSRV; Peptide with targeting and/or antimicrobial activity)", "Target(s)": "F. nucleatum; also recorded: S. mutans; also recorded: S. oralis; also recorded: S. sanguinis"}
{"system": "microorganisms", "assay": "Targeting peptide binding to target microorganisms (Tables 3, 10, 12)", "details": "microorganism(s) the targeting peptide binds; binding in aqueous buffers varied with peptide solubility, preferably 1x PBS", "source_text": "as §1, §2, §3"}
{"substance": "PF-253 (VRDDDS; Peptide with targeting and/or antimicrobial activity)", "Target(s)": "S. epidermidis; also recorded: M. luteus"}
{"substance": "PF-219 (FLALAVIAGLFKVILIYAAPYLK; Peptide with targeting and/or antimicrobial activity)", "Target(s)": "S. epidermidis; also recorded: M. luteus; also recorded: P. aeruginosa; also recorded: A. baumannii"}
{"substance": "PF-751 (AESSPAQETT; Peptide with targeting and/or antimicrobial activity)", "Target(s)": "S. epidermidis; also recorded: E. coli; also recorded: C. albicans; also recorded: C. jeikeium"}
{"substance": "PF-238 (RNAVVVTEATFPKYEEEITNYLNRRFGEDWSLKLEKCSVA; Peptide with targeting and/or antimicrobial activity)", "Target(s)": "S. mutans and S. epidermidis and E. coli and P. aeruginosa and C. albicans and MRSA and S. pneumoniae and E. faecalis"}
{"substance": "PF-800 (WYYFDNNGYM; Peptide with targeting and/or antimicrobial activity)", "Target(s)": "S. mutans"}
{"substance": "PF-172 (LTGVRRPWRAPWAGTSGWALR; Peptide with targeting and/or antimicrobial activity)", "Target(s)": "S. epidermidis and M. luteus and E. coli and P. aeruginosa and MRSA and E. faecalis and C. jejuni"}
{"substance": "PF-435 (MSRWDGHSDKGEAPAGKPPMHGFGLNGENK; Peptide with targeting and/or antimicrobial activity)", "Target(s)": "C. jeikeium"}
{"substance": "PF-714 (FVVTQRMLRMYKK; Peptide with targeting and/or antimicrobial activity)", "Target(s)": "L. pneumophila"}
{"substance": "PF-772 (TKESSS; Peptide with targeting and/or antimicrobial activity)", "Target(s)": "S. epidermidis and C. albicans and MRSA and S. pneumoniae and C. jeikeium"}
{"substance": "PF-706 (LGYGAWIGCGLGLNGFHRID; Peptide with targeting and/or antimicrobial activity)", "Target(s)": "L. pneumophila"}
{"substance": "PF-266 (DQEKKNKTEESTEQ; Peptide with targeting and/or antimicrobial activity)", "Target(s)": "S. mutans"}
{"substance": "PF-371 (TFIYNEF; Peptide with targeting and/or antimicrobial activity)", "Target(s)": "S. epidermidis; also recorded: B. fragilis; also recorded: C. jejuni"}
{"substance": "PF-717 (PQSEVTFENIYAPKANGGGLYGI; Peptide with targeting and/or antimicrobial activity)", "Target(s)": "E. coli"}
{"substance": "PF-483 (EDNKDKKDKKDK; Peptide with targeting and/or antimicrobial activity)", "Target(s)": "P. mirabilis; also recorded: C. jeikeium; also recorded: C. jejuni"}
{"substance": "PF-217 (DWEFTHKTIPQKK; Peptide with targeting and/or antimicrobial activity)", "Target(s)": "S. mutans"}
{"substance": "PF-498 (MSEEEEVSEKVYNYLRRNEFFEVRKEEFSA; Peptide with targeting and/or antimicrobial activity)", "Target(s)": "S. mutans; also recorded: E. coli"}
{"substance": "PF-727 (AYARCRHDYPFTLGQMQTH; Peptide with targeting and/or antimicrobial activity)", "Target(s)": "S. mutans; also recorded: E. coli"}
{"substance": "PF-337 (YMTKKLVEMAERQMAGK; Peptide with targeting and/or antimicrobial activity)", "Target(s)": "S. epidermidis"}
{"substance": "PF-796 (YTQSNIPTAYALMLSNKDSI; Peptide with targeting and/or antimicrobial activity)", "Target(s)": "S. mutans"}
{"substance": "PF-160 (SFHASLTKNEKPIKSTG; Peptide with targeting and/or antimicrobial activity)", "Target(s)": "S. epidermidis"}
{"system": "microorganisms", "assay": "Targeting peptide binding to target microorganisms (Tables 3, 10, 12)", "details": "peptide binding in aqueous buffers that varied with peptide solubility; preferably 1x PBS", "source_text": "as §1, §2, §3"}
{"substance": "1T-113 (HGAHQRTGQRLHHHRGRTVSGCRQNPVAGVDPDEHR; Peptide with targeting and/or antimicrobial activity)", "Target(s) (microorganism bound by the targeting peptide)": "S. mitis"}
{"substance": "1T-39 (FGFCVWMYQLLAGPPGPPA; Peptide with targeting and/or antimicrobial activity)", "Target(s) (microorganism bound by the targeting peptide)": "S. mutans; also recorded: P. aeruginosa"}
{"substance": "1T-154 (YFSFLEIVGMARR; Peptide with targeting and/or antimicrobial activity)", "Target(s) (microorganism bound by the targeting peptide)": "P. gingivalis"}
{"substance": "1T-108 (WGPLGPERPLW; Peptide with targeting and/or antimicrobial activity)", "Target(s) (microorganism bound by the targeting peptide)": "S. gordonii; also recorded: S. mitis; also recorded: S. mutans; also recorded: S. oralis; also recorded: S. salivarious; also recorded: S. sanguinis"}
{"substance": "1T-80 (GGNLGPGFGVIIP; Peptide with targeting and/or antimicrobial activity)", "Target(s) (microorganism bound by the targeting peptide)": "S. pneumoniae"}
{"substance": "1T-64 (QTVHHIHMHVLGQRQMHWPPG; Peptide with targeting and/or antimicrobial activity)", "Target(s) (microorganism bound by the targeting peptide)": "S. aureus; also recorded: S. epidermidis; also recorded: C. jeikeium; also recorded: C. xerosis; also recorded: C. striatum; also recorded: P. aeruginosa"}
{"substance": "1T-36 (VYRHLRFIDGKLVEIRLERK; Peptide with targeting and/or antimicrobial activity)", "Target(s) (microorganism bound by the targeting peptide)": "S. aureus; also recorded: S. epidermidis; also recorded: C. jeikeium; also recorded: C. xerosis; also recorded: C. striatum; also recorded: P. aeruginosa"}
{"substance": "1T-56 (LALIGAGIWMIRKG; Peptide with targeting and/or antimicrobial activity)", "Target(s) (microorganism bound by the targeting peptide)": "C. xerosis; also recorded: P. aeruginosa"}
{"substance": "1T-117 (GPGVVGPAPFSRLPAHALNL; Peptide with targeting and/or antimicrobial activity)", "Target(s) (microorganism bound by the targeting peptide)": "S. mutans"}
{"substance": "1T-54 (RWVSCNPSWRIQ; Peptide with targeting and/or antimicrobial activity)", "Target(s) (microorganism bound by the targeting peptide)": "S. epidermidis; also recorded: C. xerosis; also recorded: C. striatum; also recorded: P. aeruginosa"}
{"substance": "1T-101 (RLRVGRATDLPLTSFAVGVVRNLPDAPAH; Peptide with targeting and/or antimicrobial activity)", "Target(s) (microorganism bound by the targeting peptide)": "A. naeslundii; also recorded: P. gingivalis; also recorded: S. epidermidis; also recorded: S. gordonii; also recorded: S. mitis; also recorded: S. mutans; also recorded: S. oralis; also recorded: S. sanguinis"}
{"substance": "1T-50 (HSDEPIPNILFKSDSVH; Peptide with targeting and/or antimicrobial activity)", "Target(s) (microorganism bound by the targeting peptide)": "P. aeruginosa"}
{"substance": "1T-70 (NRQAQGERAHGEQQG; Peptide with targeting and/or antimicrobial activity)", "Target(s) (microorganism bound by the targeting peptide)": "S. aureus; also recorded: C. jeikeium; also recorded: P. aeruginosa"}
